Species: Rattus norvegicus
Assay: DrugMatrix - Regimen: Daily Repeat
Type: toxicity, organism-based, Sprague-Dawley
Parameters: regimen Daily Repeat, gender Male, age 6-8 weeks
Conditions: in vivo, po, route oral GAVAGE, vehicle .5 % CMC; for ABSOLUTE BASOPHIL / ABSOLUTE EOSINOPHIL / ABSOLUTE LYMPHOCYTE / ABSOLUTE MONOCYTE / ABSOLUTE SEGMENTED NEUTROPHIL / BASOPHIL / EOSINOPHIL / ERYTHROCYTE COUNT / HEMATOCRIT / HEMOGLOBIN / LEUKOCYTE COUNT / LYMPHOCYTE / MEAN CORPUSCULAR HEMOGLOBIN / MEAN CORPUSCULAR HEMOGLOBIN CONCENTRATION / MEAN CORPUSCULAR VOLUME / MONOCYTE / NEUTROPHIL / NUCLEATED RED BLOOD CELLS / PLATELET COUNT: tissue Blood; for ALANINE AMINOTRANSFERASE / ALBUMIN / ALKALINE PHOSPHATASE / ASPARTATE AMINOTRANSFERASE / BLOOD UREA NITROGEN / CARBON DIOXIDE / CHLORIDE / CHOLESTEROL / CREATINE PHOSPHOKINASE / CREATININE / GLUCOSE / LACTATE DEHYDROGENASE / LIPASE / PHOSPHORUS / POTASSIUM / SODIUM / TOTAL BILIRUBIN / TOTAL PROTEIN / URIC ACID: tissue Plasma
[1] = 10 mg/kg, 72 h, dose level Low, time 3 day
[2] = 10 mg/kg, 120 h, dose level Low, time 5 day
[3] = 1200 mg/kg, 72 h, dose level High, time 3 day
[4] = 1200 mg/kg, 120 h, dose level High, time 5 day

CC(C)c1nc(CN(C)C(=O)N[C@H](C(=O)N[C@@H](Cc2ccccc2)C[C@H](O)[C@H](Cc2ccccc2)NC(=O)OCc2cncs2)C(C)C)cs1 [RITONAVIR]
ABSOLUTE BASOPHIL [1]: 0 CELLS/uL | ABSOLUTE EOSINOPHIL [1]: 0 CELLS/uL | ABSOLUTE LYMPHOCYTE [1]: 16363 CELLS/uL | ABSOLUTE MONOCYTE [1]: 133.67 CELLS/uL | ABSOLUTE SEGMENTED NEUTROPHIL [1]: 2103.33 CELLS/uL | BASOPHIL [1]: 0% | EOSINOPHIL [1]: 0% | ERYTHROCYTE COUNT [1]: 5.55 x10E6/uL | HEMATOCRIT [1]: 35.17% | HEMOGLOBIN [1]: 13.33 G/DL | LEUKOCYTE COUNT [1]: 18.6 x10E3/uL | LYMPHOCYTE [1]: 88% | MEAN CORPUSCULAR HEMOGLOBIN [1]: 24.03 pg | MEAN CORPUSCULAR HEMOGLOBIN CONCENTRATION [1]: 37.93 G/DL | MEAN CORPUSCULAR VOLUME [1]: 63.37 fL | MONOCYTE [1]: 0.67% | NEUTROPHIL [1]: 11.33% | NUCLEATED RED BLOOD CELLS [1]: 0 /100WBC | PLATELET COUNT [1]: 1318 x10E3/uL | ALANINE AMINOTRANSFERASE [1]: 56.67 u/L | ALBUMIN [1]: 4.1 G/DL | ALKALINE PHOSPHATASE [1]: 325.33 u/L | ASPARTATE AMINOTRANSFERASE [1]: 93.33 u/L | BLOOD UREA NITROGEN [1]: 14 mg/dL | CARBON DIOXIDE [1]: 29 mmol/L | CHLORIDE [1]: 101 MEQ/L | CHOLESTEROL [1]: 90.67 mg/dL | CREATINE PHOSPHOKINASE [1]: 297.33 u/L | CREATININE [1]: 0.23 mg/dL | GLUCOSE [1]: 152 mg/dL | LACTATE DEHYDROGENASE [1]: 319.33 u/L | LIPASE [1]: 10.67 u/L | PHOSPHORUS [1]: 12.83 mg/dL | POTASSIUM [1]: 6.89 MEQ/L | SODIUM [1]: 145.67 MEQ/L | TOTAL BILIRUBIN [1]: 0.13 mg/dL | TOTAL PROTEIN [1]: 5.77 G/DL | URIC ACID [1]: 1.67 mg/dL | ABSOLUTE BASOPHIL [2]: 0 CELLS/uL | ABSOLUTE EOSINOPHIL [2]: 71.67 CELLS/uL | ABSOLUTE LYMPHOCYTE [2]: 18278.33 CELLS/uL | ABSOLUTE MONOCYTE [2]: 105.33 CELLS/uL | ABSOLUTE SEGMENTED NEUTROPHIL [2]: 1678 CELLS/uL | BASOPHIL [2]: 0% | EOSINOPHIL [2]: 0.33% | ERYTHROCYTE COUNT [2]: 6.19 x10E6/uL | HEMATOCRIT [2]: 37% | HEMOGLOBIN [2]: 13.97 G/DL | LEUKOCYTE COUNT [2]: 20.13 x10E3/uL | LYMPHOCYTE [2]: 90.33% | MEAN CORPUSCULAR HEMOGLOBIN [2]: 22.63 pg | MEAN CORPUSCULAR HEMOGLOBIN CONCENTRATION [2]: 37.73 G/DL | MEAN CORPUSCULAR VOLUME [2]: 59.93 fL | MONOCYTE [2]: 0.67% | NEUTROPHIL [2]: 8.67% | NUCLEATED RED BLOOD CELLS [2]: 0 /100WBC | PLATELET COUNT [2]: 1433.33 x10E3/uL | ALANINE AMINOTRANSFERASE [2]: 50.67 u/L | ALBUMIN [2]: 4.4 G/DL | ALKALINE PHOSPHATASE [2]: 359.67 u/L | ASPARTATE AMINOTRANSFERASE [2]: 81.67 u/L | BLOOD UREA NITROGEN [2]: 15.33 mg/dL | CARBON DIOXIDE [2]: 27.67 mmol/L | CHLORIDE [2]: 102 MEQ/L | CHOLESTEROL [2]: 79.67 mg/dL | CREATINE PHOSPHOKINASE [2]: 237 u/L | CREATININE [2]: 0.21 mg/dL | GLUCOSE [2]: 148.67 mg/dL | LACTATE DEHYDROGENASE [2]: 188 u/L | LIPASE [2]: 9.33 u/L | PHOSPHORUS [2]: 13.17 mg/dL | POTASSIUM [2]: 6.85 MEQ/L | SODIUM [2]: 145.83 MEQ/L | TOTAL BILIRUBIN [2]: 0.17 mg/dL | URIC ACID [2]: 1.63 mg/dL | ABSOLUTE BASOPHIL [3]: 0 CELLS/uL | ABSOLUTE EOSINOPHIL [3]: 142.67 CELLS/uL | ABSOLUTE LYMPHOCYTE [3]: 15572 CELLS/uL | ABSOLUTE MONOCYTE [3]: 334 CELLS/uL | ABSOLUTE SEGMENTED NEUTROPHIL [3]: 651.33 CELLS/uL | BASOPHIL [3]: 0% | EOSINOPHIL [3]: 0.67% | ERYTHROCYTE COUNT [3]: 5.91 x10E6/uL | HEMATOCRIT [3]: 36.97% | HEMOGLOBIN [3]: 14.63 G/DL | LEUKOCYTE COUNT [3]: 16.7 x10E3/uL | LYMPHOCYTE [3]: 93.67% | MEAN CORPUSCULAR HEMOGLOBIN [3]: 24.77 pg | MEAN CORPUSCULAR HEMOGLOBIN CONCENTRATION [3]: 39.6 G/DL | MEAN CORPUSCULAR VOLUME [3]: 62.53 fL | MONOCYTE [3]: 2% | NEUTROPHIL [3]: 3.67% | NUCLEATED RED BLOOD CELLS [3]: 0 /100WBC | PLATELET COUNT [3]: 1284 x10E3/uL | ALANINE AMINOTRANSFERASE [3]: 50 u/L | ALBUMIN [3]: 3.97 G/DL | ALKALINE PHOSPHATASE [3]: 314 u/L | ASPARTATE AMINOTRANSFERASE [3]: 75 u/L | BLOOD UREA NITROGEN [3]: 13.67 mg/dL | CARBON DIOXIDE [3]: 31.67 mmol/L | CHLORIDE [3]: 100.33 MEQ/L | CHOLESTEROL [3]: 86.67 mg/dL | CREATINE PHOSPHOKINASE [3]: 162.33 u/L | CREATININE [3]: 0.16 mg/dL | GLUCOSE [3]: 153.67 mg/dL | LACTATE DEHYDROGENASE [3]: 134.67 u/L | LIPASE [3]: 10.33 u/L | PHOSPHORUS [3]: 11.4 mg/dL | POTASSIUM [3]: 5.99 MEQ/L | SODIUM [3]: 144.87 MEQ/L | TOTAL BILIRUBIN [3]: 0.2 mg/dL | TOTAL PROTEIN [3]: 5.67 G/DL | URIC ACID [3]: 1.33 mg/dL | ABSOLUTE BASOPHIL [4]: 0 CELLS/uL | ABSOLUTE EOSINOPHIL [4]: 0 CELLS/uL | ABSOLUTE LYMPHOCYTE [4]: 16888.67 CELLS/uL | ABSOLUTE MONOCYTE [4]: 206.67 CELLS/uL | ABSOLUTE SEGMENTED NEUTROPHIL [4]: 871.33 CELLS/uL | BASOPHIL [4]: 0% | EOSINOPHIL [4]: 0% | ERYTHROCYTE COUNT [4]: 6.28 x10E6/uL | HEMATOCRIT [4]: 37.7% | HEMOGLOBIN [4]: 14.77 G/DL | LEUKOCYTE COUNT [4]: 17.97 x10E3/uL | LYMPHOCYTE [4]: 94% | MEAN CORPUSCULAR HEMOGLOBIN [4]: 23.53 pg | MEAN CORPUSCULAR HEMOGLOBIN CONCENTRATION [4]: 39.17 G/DL | MEAN CORPUSCULAR VOLUME [4]: 60.2 fL | MONOCYTE [4]: 1% | NEUTROPHIL [4]: 5% | NUCLEATED RED BLOOD CELLS [4]: 0 /100WBC | PLATELET COUNT [4]: 1230 x10E3/uL | ALANINE AMINOTRANSFERASE [4]: 59.67 u/L | ALBUMIN [4]: 4 G/DL | ALKALINE PHOSPHATASE [4]: 219 u/L | ASPARTATE AMINOTRANSFERASE [4]: 104.67 u/L | BLOOD UREA NITROGEN [4]: 16 mg/dL | CARBON DIOXIDE [4]: 22.33 mmol/L | CHLORIDE [4]: 106 MEQ/L | CHOLESTEROL [4]: 79 mg/dL | CREATINE PHOSPHOKINASE [4]: 482 u/L | CREATININE [4]: 0.24 mg/dL | GLUCOSE [4]: 155.33 mg/dL | LACTATE DEHYDROGENASE [4]: 180.33 u/L | LIPASE [4]: 10.67 u/L | PHOSPHORUS [4]: 10.5 mg/dL | POTASSIUM [4]: 7.89 MEQ/L | SODIUM [4]: 148.6 MEQ/L | TOTAL BILIRUBIN [4]: 0.17 mg/dL | TOTAL PROTEIN [4]: 6.03 G/DL | URIC ACID [4]: 1.8 mg/dL
